The values below come from patent US7795246B2, “Particle-forming compositions containing fused pyrrolocarbazoles” (Cephalon, Inc., priority 1998, dated 2010).

For series [1], the system named is rat tumor model of prostate cancer. Briefly: Rat tumor model of prostate cancer. The class given is in vivo.
The next series can be described thus: physchem. The class given is physicochemical. The text has this: Thus, dissolving the fused pyrrolocarbazole initially in this particular particle-forming composition achieves a better than 3.2-fold increase in fused pyrrolocarbazole concentration in the final solution. Because initial contact with an aqueous medium occurs in vitro or in vivo, the non-aqueous particle-forming compositions are useful for therapeutic administration of a fused pyrrolocarbazole to a mammal.

The next series can be described thus: in vivo. Particulars: beagle, dog, iv, 1 mg/kg.
Series [2] in a line: Bioavailability in monkeys (plasma pharmacokinetics, HPLC). Particulars: cynomolgus monkey. The class given is in vivo. The method, then: Pharmacokinetic parameters were measured following intravenous (i.v.) administration and oral (p.o.) administration. The test composition consisted of four male cynomolgus monkeys. The i.v. dose was administered as a bolus, at a dosage level of 3 mg/kg. The oral doses were administered as soft gelatin capsules, at a dosage level of 10 mg/kg (2 capsules/monkey/dose). The oral formulations were as described in Table 6, below.
Blood samples were collected at predetermined time points. […] Pharmacokinetic parameters were estimated by non-compartmental methods. In Table 7, Cmax is peak plasma concentration; Tmax is time to peak plasma concentration; Tt/2 is apparent elimination half-life; AUC is area under the curve; and F % is absolute bioavailability.

The conditions of series [3]: cited from earlier work.

The term solubility denotes the dissolved amount per volume that the medium holds. Usually clearance stands for the rate of elimination divided by the concentration. In general, half-life refers to the time in which the quantity being followed falls by half. Read a low half-life as fast loss.

Values after ≈ are worked out from the molar mass of the structure shown. Like-named read-outs stand apart in the source and are kept apart here.

Procedure for in vivo: An intravenous dose was included as the third formulation in the crossover design. […] The plasma concentrations, as determined by HPLC with fluorescence detection, were normalized to a 1 mg/kg dose. Pharmacokinetic parameters, including peak plasma concentration (Cmax), time to peak plasma concentration (Tmax), apparent elimination half life (t1/2), area under the curve (AUCoo) and the absolute bioavailability (F %) were determined.

For the molecule `CC12OC(CC1(O)CO)n1c3ccccc3c3c4c(c5c6ccccc6n2c5c31)CNC4=O` (stereo not shown) [Compound IIa-12], the anticancer activity result in series [1] is listed as “anticancer activity”. The solubility in water result in “physchem” was “essentially no solubility”. For the same molecule, the solubility in “physchem” (aqueous with cosolvent or surfactant or cyclodextrin, kinetic from dmso stock) came to 570 µg/mL (≈ 1300 µM); in “physchem” (aqueous with cosolvent or surfactant or cyclodextrin, thermodynamic from solid), 180 µg/mL (≈ 410 µM); in “physchem” (organic solvent or mixture), 28400 µg/mL (≈ 64700 µM). The molecule further showed a clearance in “in vivo” of 13.2 mL/min/kg. In the series “in vivo”, this molecule showed a half-life of 1.16 h. For the same molecule, the Vd in the series “in vivo” (apparent volume of distribution Vc) amounted to 0.96 L/kg; in the series “in vivo” (apparent volume of distribution Vβ) it was 1.35 L/kg.
For the molecule `CCSCc1ccc2c(c1)c1c3c(c4c5cc(CSCC)ccc5n5c4c1n2C1CC(O)(C(=O)OC)C5(C)O1)CNC3=O` (stereo not shown) [Compound IIa-51], in series [2] (i.v. bolus 3 mg/kg, PEG 1450:Pluronic F68:hydroxypropyl-β-cyclodextrin:water), the Tt/2 turned out to be 3.0 h. Besides, the AUC(0-t) in series [2] (male, plasma, iv, i.v. bolus 3 mg/kg, PEG 1450:Pluronic F68:hydroxypropyl-β-cyclodextrin:water, read-out: AUC0-4) is 2500 ± 348 ng·h/mL. Moreover, the clearance in series [2] (male, plasma, iv, i.v. dose 3 mg/kg) was 18.3 mL/min/kg. Moreover, the Vd in series [2] (male, plasma, iv, i.v. dose 3 mg/kg, read-out: mean volume of distribution) was determined as 4.9 ± 0.7 L/kg.
As for `COC(=O)[C@@]1(O)C[C@H]2O[C@]1(C)n1c3ccccc3c3c4c(c5c6ccccc6n2c5c31)C(=O)NC4` [Compound K-252a, K-252a], the solubility in water entry in series [3] was “insoluble”.
On to `C[C@]12O[C@H](C[C@]1(O)C(=O)O)n1c3ccccc3c3c4c(c5c6ccccc6n2c5c31)CNC4=O` [Compound K-252b, K-252b], for which the solubility in water result in series [3] is reported as “insoluble”.
Turning to `C[C@@H]1O[C@@H](n2c3ccccc3c3c4c(c5c6ccccc6[nH]c5c32)CNC4=O)[C@H](O)[C@H](O)[C@H]1O` [Compound K-252d, K-252d], in series [3], the solubility in water entry was “insoluble”.
